Source: PubChem BioAssay (NCI)
Several values for one entry are separate records, joined by “and”; a condition that tells them apart may be missing. Identical values can stand only once.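 48-hour exposure; five concentrations; linearly interpolated endpoints. GI50 is the concentration that inhibits growth by half. TGI denotes the concentration required for complete inhibition of growth.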

Columns and labels:
Experiment in all cases: growth of human tumour cells (NCI), 48 h
[1] = tested on: A549 NSCLC
[2] = tested on: HCC-2998 colon
[3] = tested on: MDA-MB-231 breast
[4] = tested on: MOLT-4 leukemia
[5] = tested on: NCI-H23 lung
[6] = tested on: NCI-H522 lung
[7] = tested on: OVCAR-3 ovarian
[8] = tested on: SK-MEL-28 melanoma
[9] = tested on: SK-OV-3 ovarian
[10] = tested on: U251 CNS

## CN[C@]12CC3(C=CC(=O)C=C3)O[C@@]1(Cc1ccc(OC)cc1)N(C)C(=O)N2
[1]
  GI50: 3.11 µM
  TGI: 14 µM
[2]
  GI50: 1930 nM
  TGI: 3.61 µM
[3]
  GI50: 4.2 µM
  TGI: 15.1 µM
[4]
  GI50: 2.8 µM
  TGI: 9.88 µM
[5]
  GI50: 2880 nM
  TGI: 9.35 µM
[6]
  GI50: 0.371 µM
  TGI: 2.14 µM
[7]
  GI50: 0.793 µM
  TGI: 4.14 µM
[8]
  GI50: 2530 nM
  TGI: 6.75 µM
[9]
  GI50: 5.12 µM
  TGI: 44.2 µM
[10]
  GI50: 1.85 µM
  TGI: 3.99 µM

## S=c1nc2[nH]ncc2c(N/N=C/c2ccccc2)[nH]1
[1]
  GI50: 98.3 µM
  TGI: > 100 µM
[2]
  GI50: > 100000 nM
  TGI: > 100 µM
[3]
  GI50: 19.8 µM
  TGI: 71.4 µM
[4]
  GI50: > 100 µM
  TGI: > 100 µM
[5]
  GI50: > 100000 nM
  TGI: > 100 µM
[6]
  GI50: > 100 µM
  TGI: > 100 µM
[7]
  GI50: 48.5 µM
  TGI: > 100 µM
[8]
  GI50: > 100000 nM
  TGI: > 100 µM
[9]
  GI50: > 100 µM
  TGI: > 100 µM
[10]
  GI50: 93.8 µM
  TGI: > 100 µM

## CCOC(=O)c1ccc(N(CCOS(C)(=O)=O)CCOS(C)(=O)=O)cc1C
[1]
  GI50: 44.5 µM
  TGI: > 100 µM
[2]
  GI50: 28100 nM
  TGI: 66.6 µM
[3]
  GI50: 77.9 µM
  TGI: > 100 µM
[4]
  GI50: 7.01 µM
  TGI: > 100 µM
[5]
  GI50: 15100 nM
  TGI: 55.5 µM
[6]
  GI50: 18.8 µM
  TGI: 61.8 µM
[7]
  GI50: 18.8 µM
  TGI: 44 µM
[8]
  GI50: > 100000 nM
  TGI: > 100 µM
[9]
  GI50: 33.6 µM
  TGI: > 100 µM
[10]
  GI50: 26.4 µM
  TGI: > 100 µM

## Nc1ncnc2c1nc(-c1ccccc1)n2C1OC(CO)C(O)C1O (stereo not given)
[1]
  TGI: > 100 µM
[2]
  TGI: > 100 µM
[3]
  TGI: > 100 µM
[4]
  TGI: > 100 µM
[5]
  TGI: > 100 µM
[6]
  TGI: > 100 µM
[7]
  TGI: > 100 µM
[8]
  TGI: > 100 µM
[9]
  TGI: > 100 µM
[10]
  TGI: > 100 µM

## Cc1cccc2c(N=Nc3ccc(S(N)(=O)=O)cc3)c(O)[nH]c12
[1]
  GI50: > 25 µM
  TGI: > 25 µM
[2]
  GI50: > 25000 nM
  TGI: > 25 µM
[3]
  GI50: > 25 µM
  TGI: > 25 µM
[4]
  GI50: > 25 µM
  TGI: > 25 µM
[5]
  GI50: > 25000 nM
  TGI: > 25 µM
[6]
  GI50: > 25 µM
  TGI: > 25 µM
[7]
  GI50: > 25 µM
  TGI: > 25 µM
[8]
  GI50: > 25000 nM
  TGI: > 25 µM
[9]
  GI50: > 25 µM
  TGI: > 25 µM
[10]
  GI50: > 25 µM
  TGI: > 25 µM

## COc1cc(/C=C2\CN(C)C/C(=C\c3cc(OC)c(OC)c(OC)c3)C2=O)cc(OC)c1OC
[1]
  GI50: 0.37 µM
  TGI: 1.59 µM
[2]
  GI50: 366 nM
  TGI: 1.22 µM
[3]
  GI50: 0.336 µM
  TGI: 1.03 µM
[4]
  GI50: 0.323 µM
  TGI: 4.5 µM
[5]
  GI50: 420 nM
  TGI: 1.61 µM
[6]
  GI50: 0.234 µM
  TGI: 0.624 µM
[7]
  GI50: 0.328 µM
  TGI: 0.892 µM
[8]
  GI50: 200 nM
  TGI: 0.429 µM
[9]
  GI50: 0.412 µM
  TGI: 1.41 µM
[10]
  GI50: 0.257 µM
  TGI: 0.746 µM

## Cn1cccc1-c1cc(-c2cccs2)[nH]c(=O)c1C#N
[1]
  GI50: > 100 µM
  TGI: > 100 µM
[2]
  GI50: > 100000 nM
  TGI: > 100 µM
[3]
  GI50: > 100 µM
  TGI: > 100 µM
[4]
  GI50: > 100 µM
  TGI: > 100 µM
[5]
  GI50: > 100000 nM
  TGI: > 100 µM
[6]
  GI50: 25.9 µM
  TGI: > 100 µM
[7]
  GI50: > 100 µM
  TGI: > 100 µM
[8]
  GI50: > 100000 nM
  TGI: > 100 µM
[9]
  GI50: > 100 µM
  TGI: > 100 µM
[10]
  GI50: > 100 µM
  TGI: > 100 µM

## O=C1C(=O)c2ccccc2-c2ccccc21
[1]
  GI50: 2.48 µM
  TGI: 6.54 µM
[2]
  GI50: 1990 nM
  TGI: 3.52 µM
[3]
  GI50: 1.42 µM
  TGI: 3.19 µM
[4]
  GI50: 1.56 µM
  TGI: 4.75 µM
[5]
  GI50: 1680 nM
  TGI: 3.99 µM
[6]
  GI50: 1.75 µM
  TGI: 4.12 µM
[7]
  GI50: 1.72 µM
  TGI: 3.2 µM
[8]
  GI50: 1770 nM
  TGI: 3.24 µM
[9]
  GI50: 1.73 µM
  TGI: 3.25 µM
[10]
  GI50: 1.67 µM
  TGI: 3.53 µM

## CN1CCC[C@@H]1CCO[C@](C)(c1ccccc1)c1ccc(Cl)cc1
[1]
  GI50: 7.92 µM
  TGI: 21.7 µM
[2]
  GI50: 3410 nM
  TGI: 13.7 µM
[3]
  GI50: 2.79 µM
  TGI: 13.5 µM
[4]
  GI50: 4.12 µM
  TGI: 18.1 µM
[5]
  GI50: 10500 nM
  TGI: 24.3 µM
[6]
  GI50: 4.63 µM
  TGI: 17.1 µM
[7]
  GI50: 7.96 µM
  TGI: 20.8 µM
[8]
  GI50: 2000 nM
  TGI: 4.36 µM
[9]
  GI50: 4.46 µM
  TGI: 17.8 µM
[10]
  GI50: 3.83 µM
  TGI: 15.8 µM

## Cc1c2c(nn1C(=O)c1nn(-c3ccc(Cl)cc3)cc1O)-c1ccccc1CC2
[1]
  GI50: 0.0343 µM
  TGI: > 100 µM
[2]
  GI50: 377 nM
  TGI: > 100 µM
[3]
  GI50: 1.62 µM
  TGI: > 100 µM
[4]
  GI50: 0.0415 µM
  TGI: > 39.5 µM
[5]
  GI50: 41.1 nM
  TGI: > 100 µM
[6]
  GI50: 0.0376 µM
  TGI: 0.717 µM
[7]
  GI50: 0.185 µM
  TGI: 1.55 µM
[8]
  GI50: 293 nM
  TGI: > 100 µM
[9]
  GI50: 0.202 µM
  TGI: > 100 µM
[10]
  GI50: 0.0292 µM
  TGI: > 100 µM

## CNNCc1ccc(C(=O)NC(C)C)cc1
[1]
  GI50: > 500 µM
  TGI: > 500 µM
[2]
  GI50: > 500000 nM
  TGI: > 500 µM
[3]
  TGI: > 500 µM
[4]
  GI50: > 500 µM
  TGI: 426 µM and > 500 µM
[5]
  TGI: > 500 µM
[6]
  TGI: > 500 µM
[7]
  TGI: > 472 µM
[8]
  TGI: > 500 µM
[9]
  TGI: > 500 µM
[10]
  GI50: > 500 µM
  TGI: > 500 µM

## N#CC(=S)Nc1ccc(Cl)c(Cl)c1
[1]
  TGI: > 100 µM
[2]
  TGI: 34.8 µM
[3]
  TGI: 43.4 µM
[4]
  TGI: 43.5 µM
[5]
  TGI: > 59.2 µM
[6]
  GI50: 3.73 µM
  TGI: 24.2 µM
[7]
  TGI: 54.3 µM
[8]
  TGI: > 62.7 µM
[9]
  TGI: 61.6 µM
[10]
  TGI: > 85.1 µM
